Three molecules from ChEMBL document CHEMBL3616440, “Non-basic azolotriazinone MCHR1 antagonists for the treatment of obesity: An empirical brain-exposures-driven candidate selection for in vivo efficacy studies” (Bioorg Med Chem Lett, 2015) can be followed below.

Data set [1] concerns Rattus norvegicus. The experiment in a line: Toxicity in oral-dosed Sprague-Dawley rat assessed as biliary lesion after 4 days. The data set is classed as organism-based. The settings on record: in vivo, 96 h.
For data set [2], the system named is Plasma. The experiment in a line: Fraction unbound in Sprague-Dawley rat plasma assessed as 6-(4-chlorophenyl)-3-(4-(2-hydroxy-2-methylpropoxy)-3-methoxyphenyl)thieno[3,2-d]pyrimidin-4(3H)-one level. The data set is classed as ADME, cell-free.
Data set [3] has as its system Rattus norvegicus. The experiment in a line: Prodrug conversion in oral-dosed Sprague-Dawley rat assessed as 3-(4-(6-(4-chlorophenyl)-4-oxothieno[3,2-d]pyrimidin-3(4H)-yl)-2-methoxyphenoxy)-2-hydroxy-2-methylpropanoic acid formation. The conditions noted are these: in vivo. The data set is classed as ADME, organism-based.
Data set [4] is described as follows: Ratio of free drug level in brain of Sprague-Dawley rat assessed as 6-(4-chlorophenyl)-3-(4-(2-hydroxy-2-methylpropoxy)-3-methoxyphenyl)thieno[3,2-d]pyrimidin-4(3H)-one level at 10 mg/kg, po to Ki for rat MCHR1. In kind it is ADME, organism-based. The conditions noted are these: in vivo.
The test system of data set [5] is Rattus norvegicus. The experiment in a line: Antiobesity activity in Sprague-Dawley rat assessed as body weight reduction at 10 mg/kg, po qd after 4 days relative to control. The data set is classed as functional. The settings on record: 96 h.
The test system of data set [6] is Rattus norvegicus. Briefly: Prodrug conversion in oral-dosed Sprague-Dawley rat assessed as 6-(4-chlorophenyl)-3-(4-(2,3-dihydroxy-2-methylpropoxy)-3-methoxyphenyl)thieno[3,2-d]pyrimidin-4(3H)-one formation. In kind it is ADME, organism-based. The conditions noted are these: in vivo.
Data set [7] deals with Brain. The experiment in a line: Free drug level in Sprague-Dawley rat brain assessed as 6-(4-chlorophenyl)-3-(4-(2-hydroxy-2-methylpropoxy)-3-methoxyphenyl)thieno[3,2-d]pyrimidin-4(3H)-one level at 10 mg/kg, po qd at 20 hrs. In kind it is ADME, organism-based. The conditions noted are these: in vivo.
Data set [8] can be described thus: Ratio of free drug level in brain of Sprague-Dawley rat assessed as 6-(4-chlorophenyl)-3-(6-(4-hydroxypiperidin-1-yl)pyridin-3-yl)pyrrolo[1,2-f][1,2,4]triazin-4(3H)-one level at 30 mg/kg, po to Ki for rat MCHR1. The data set is classed as ADME, organism-based. The conditions noted are these: in vivo.
Data set [9] deals with Brain. Briefly: Free drug level in Sprague-Dawley rat brain assessed as 6-(4-chlorophenyl)-3-(6-(4-hydroxypiperidin-1-yl)pyridin-3-yl)pyrrolo[1,2-f][1,2,4]triazin-4(3H)-one level at 3 mg/kg, po qd at 20 hrs. The settings on record: in vivo. The data set is classed as ADME, organism-based.
For data set [10], the system named is Brain. The experiment in a line: Drug concentration in Sprague-Dawley rat brain assessed as 6-(4-chlorophenyl)-3-(6-(4-hydroxypiperidin-1-yl)pyridin-3-yl)pyrrolo[1,2-f][1,2,4]triazin-4(3H)-one level at 3 mg/kg, po qd at 20 hrs. In kind it is ADME, organism-based. The conditions noted are these: in vivo, read-out: Drug uptake.
The test system of data set [11] is Plasma. The experiment in a line: Fraction unbound in Sprague-Dawley rat plasma assessed as 6-(4-chlorophenyl)-3-(6-(4-hydroxypiperidin-1-yl)pyridin-3-yl)pyrrolo[1,2-f][1,2,4]triazin-4(3H)-one level. In kind it is ADME, cell-free.
Data set [12] has as its system Brain. The experiment in a line: Free drug level in Sprague-Dawley rat brain assessed as 6-(4-chlorophenyl)-3-(6-(4-hydroxypiperidin-1-yl)pyridin-3-yl)pyrrolo[1,2-f][1,2,4]triazin-4(3H)-one level at 10 mg/kg, po qd at 20 hrs. The data set is classed as ADME, organism-based. The conditions noted are these: in vivo.
Data set [13] deals with Brain. Briefly: Drug concentration in Sprague-Dawley rat brain assessed as 6-(4-chlorophenyl)-3-(6-(4-hydroxypiperidin-1-yl)pyridin-3-yl)pyrrolo[1,2-f][1,2,4]triazin-4(3H)-one level at 10 mg/kg, po qd at 20 hrs. The data set is classed as ADME, organism-based. The conditions noted are these: in vivo, read-out: Drug uptake.
Data set [14] has as its system Rattus norvegicus. The experiment in a line: Antiobesity activity in Sprague-Dawley rat assessed as body weight reduction at 30 mg/kg, po qd after 4 days relative to control. The data set is classed as functional. The settings on record: 96 h.
The nature of data set [15]: Ratio of free drug level in brain of Sprague-Dawley rat assessed as 6-(4-chlorophenyl)-3-(6-(4-hydroxypiperidin-1-yl)pyridin-3-yl)pyrrolo[1,2-f][1,2,4]triazin-4(3H)-one level at 10 mg/kg, po to Ki for rat MCHR1. The data set is classed as ADME, organism-based. The conditions noted are these: in vivo.
Data set [16] deals with Brain. The experiment in a line: Free drug level in Sprague-Dawley rat brain assessed as 6-(4-chlorophenyl)-3-(6-(4-hydroxypiperidin-1-yl)pyridin-3-yl)pyrrolo[1,2-f][1,2,4]triazin-4(3H)-one level at 30 mg/kg, po qd at 20 hrs. In kind it is ADME, organism-based. The conditions noted are these: in vivo.
Data set [17] concerns Rattus norvegicus. Briefly: Antiobesity activity in Sprague-Dawley rat assessed as body weight reduction at 3 mg/kg, po qd after 4 days relative to control. In kind it is functional. The conditions noted are these: 96 h.
Data set [18] in a line: Ratio of free drug level in brain of Sprague-Dawley rat assessed as 6-(4-chlorophenyl)-3-(6-(4-hydroxypiperidin-1-yl)pyridin-3-yl)pyrrolo[1,2-f][1,2,4]triazin-4(3H)-one level at 3 mg/kg, po to Ki for rat MCHR1. The data set is classed as ADME, organism-based. The conditions noted are these: in vivo.
Data set [19] concerns Brain. The experiment in a line: Drug concentration in Sprague-Dawley rat brain assessed as 6-(4-chlorophenyl)-3-(6-(4-hydroxypiperidin-1-yl)pyridin-3-yl)pyrrolo[1,2-f][1,2,4]triazin-4(3H)-one level at 30 mg/kg, po qd at 20 hrs. The data set is classed as ADME, organism-based. The settings on record: in vivo, read-out: Drug uptake.

With `COc1cc(-n2cnc3cc(-c4ccc(Cl)cc4)sc3c2=O)ccc1OCC(C)O` (stereo not given), the Activity entry with Rattus norvegicus [1] is “Toxic”.

Turning to `COc1cc(-n2cnc3cc(-c4ccc(Cl)cc4)sc3c2=O)ccc1OCC(C)(C)OC(=O)CN`, the Fu in the data set on Plasma [2] was 0.7%. Besides, the Drug metabolism entry in the data set on Rattus norvegicus [3] and with Rattus norvegicus [6] was “metabolite_detected” in each case. Besides, the Ratio in data set [4] is listed as 1.6. Moreover, the inhibition in vivo (usually the drop in the measured response relative to a control, in per cent) at 10 mg/kg in the data set with Rattus norvegicus [5] worked out at 6.9%. Moreover, the “Drug uptake(free)” value in the data set on Brain [7] is listed as 11.3 nM.

On to `CC(C)[C@H](N)C(=O)OC1CCN(c2ccc(-n3cnn4cc(-c5ccc(Cl)cc5)cc4c3=O)cn2)CC1`, for which the Ratio in data set [8] was below 1.7; in data set [15], below 1.1; in data set [18] it was below 0.2. In addition, the “Drug uptake(free)” value is recorded as below 3.9 nM with Brain [9], below 20 nM in the data set with Brain [12] and below 30 nM in the data set with Brain [16]. Besides, the concentration was 1.97 µM in the data set with Brain [10], 10.1 µM in the data set with Brain [13] and 15.1 µM in the data set with Brain [19]. Also, the Fu in the data set with Plasma [11] is given as below 0.2%. The inhibition in vivo at 30 mg/kg in the data set with Rattus norvegicus [14] worked out at 2.6%. Moreover, the inhibition in vivo at 10 mg/kg with Rattus norvegicus [5] is 1.3%. Besides, the inhibition in vivo at 3 mg/kg in the data set with Rattus norvegicus [17] came to 1.3%.
